In the test the test system is human epidermic cells. The test can be described thus: Cell activation effect by cell culture (metabolic activity, WST-1). It is filed as cell-based. Conditions: 0.5% fermented product 1 (SB), alone or combined. The procedure:
Immortalized cells obtained by transforming human epidermic cells (manufactured by Kurabo Industries, Ltd.) using SV40 virus T antigen according to the method of Yasumoto et al. (Cultured Cell Experiment For Molecular Biology Research by S. Yasumoto, edited by T. Kuroki et al., Yodosha Co., Ltd., 1995, pp 191-200) were used as test cells. The cells were disseminated in a 96 well plate (4×10^3 cells/0.1 ml/well) and cultured in a serum-free liquid medium for proliferation (HuMedia-KG 2: Kurabo Industries, Ltd.) under the conditions of 37° C. and a CO2 concentration of 5%. […] The cells were also cultured in media to which the above components were individually added as Comparative Examples, and in a medium to which none of these components were added as a control. On the third day of culturing, a reducing-type coloring reagent (WST-1, manufactured by Dojindo Co.) was added in an amount of 10 μl/well, followed by incubation for 2 hours under the conditions of 37° C. and a CO2 concentration of 5%. Then, absorption at 450-660 nm was measured. Metabolic activity of the cells was calculated from the resulting absorbance. The cell activation effect was evaluated from the rate of increase in the metabolic activity in comparison with the control sample. […]
On the technique in general: Tetrazolium assays rely on reduction of a dye to a coloured formazan, in cell work by metabolically active cells.

In the case of `CC1=C(/C=C/C(C)=C/C=C/C(C)=C/C(=O)O)C(C)(C)CCC1` [all-trans-retinoic acid], the “metabolic activity of human epidermic cells” value (5×10^−10 M all-trans-retinoic acid (RA), FIG. 2) was “cannot exhibit metabolic activity”. `CC1=C(/C=C/C(C)=C/C=C/C(C)=C/CO)C(C)(C)CCC1` [all-trans-retinol]: under “5×10^−9 M all-trans-retinol (ROH), FIG. 1”, the “metabolic activity of human epidermic cells” value is “cannot exhibit metabolic activity”.

For the origin of these results see patent US20040029829A1, “External skin preparations and process for producing the same” (priority 2000, published 2004).
